Key:
[1] = target: FGFR3 (SEQ ID NO: 5, amino acids 449-759) (Homo sapiens (Human), UniProt P22607); assay: LC/MS FGFR3 kobs assay (covalent protein modification); format: binding; settings: 500 nM FGFR3, 3 μM compound
How it was run: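 Timed reactions were stopped with 0.4% formic acid, and covalent adduct formation was measured by LC/MS on a Q-TOF with deconvolution of protein masses. Modified signal was normalized to DMSO-control unmodified protein at each time point; percent unmodified protein was fit to exponential decay to give kobs.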

[2] = target: FGFR1 (SEQ ID NO: 1, amino acids 458-765) (Homo sapiens (Human), UniProt P11362); assay: LC/MS FGFR1 kobs assay (covalent protein modification); format: binding; settings: 500 nM FGFR1, 3 μM compound
How it was run: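 Covalent labeling of FGFR1 kinase domain (aa 458-765) tracked over time by intact-protein LC/MS after formic acid quench. kobs derived by fitting DMSO-normalized percent unmodified FGFR1 to an exponential decay model.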

[3] = target: recombinant human FGFR1 catalytic domain (amino acids 308-731) (Homo sapiens (Human), UniProt P11362); assay: FGFR1 enzyme activity assay (LanthaScreen TR-FRET); format: biochemical; settings: 20 min incubation at 22° C., average of multiple determinations if made, read-out: FGFR1 Enz FRET IC50
How it was run: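 His-tagged FGFR1 kinase domain with 100 nM Alexa Fluor 647-poly-GT peptide and ATP in pH 7.5 HEPES/MgCl2 buffer with 2% DMSO, 20 min at 22 °C. Quenched with EDTA plus 2 nM Eu-PY20 antibody and read after 60 min. IC50 comes from a 4-parameter fit of percent of control.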

[4] = target: dephosphorylated FGFR2 (Homo sapiens (Human), UniProt P21802); assay: FGFR enzyme binding assay (HTRF tracer displacement), FGFR2; settings: 5 nM dephosphorylated FGFR2, average of multiple determinations if made
How it was run: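 Compounds were tested for displacement of a tracer from human FGFR kinase in a time-resolved FRET binding format. After 60 minutes at 22° C, signal was read at two wavelengths and converted to percent of control, normalised between untreated wells and 1 μM reference inhibitor.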

[5] = target: recombinant human FGFR3 (amino acids R397-T806) (Homo sapiens (Human), UniProt P22607); assay: FGFR3 enzyme activity assay (LanthaScreen TR-FRET); format: biochemical; settings: 25 μM ATP, 10 min incubation at 22° C., average of multiple determinations if made, read-out: FGFR3 Enz FRET IC50
How it was run: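 GST-HIS6-tagged human FGFR3 (R397-T806) was reacted with 100 nM Alexa Fluor 647-Poly-GT substrate and 25 μM ATP plus compound in HEPES/MgCl2/Triton buffer, pH 7.5, 2% DMSO, for 10 min at 22 °C.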

Chain of recombinant human FGFR1 catalytic domain (amino acids 308-731) (P11362 other isoform, or with tags, fused parts or gaps): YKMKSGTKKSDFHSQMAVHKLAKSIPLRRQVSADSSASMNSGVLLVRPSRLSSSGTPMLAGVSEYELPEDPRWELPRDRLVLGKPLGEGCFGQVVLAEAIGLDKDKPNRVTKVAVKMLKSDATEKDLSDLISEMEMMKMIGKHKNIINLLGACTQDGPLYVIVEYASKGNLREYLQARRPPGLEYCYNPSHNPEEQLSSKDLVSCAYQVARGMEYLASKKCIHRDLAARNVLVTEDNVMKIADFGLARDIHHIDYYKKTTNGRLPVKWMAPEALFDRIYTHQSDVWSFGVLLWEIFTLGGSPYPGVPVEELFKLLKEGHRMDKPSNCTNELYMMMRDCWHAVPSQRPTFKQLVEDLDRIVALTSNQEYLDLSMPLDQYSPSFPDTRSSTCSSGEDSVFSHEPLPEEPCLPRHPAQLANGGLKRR
Chain of FGFR3 (SEQ ID NO: 5, amino acids 449-759) (P22607 449-759): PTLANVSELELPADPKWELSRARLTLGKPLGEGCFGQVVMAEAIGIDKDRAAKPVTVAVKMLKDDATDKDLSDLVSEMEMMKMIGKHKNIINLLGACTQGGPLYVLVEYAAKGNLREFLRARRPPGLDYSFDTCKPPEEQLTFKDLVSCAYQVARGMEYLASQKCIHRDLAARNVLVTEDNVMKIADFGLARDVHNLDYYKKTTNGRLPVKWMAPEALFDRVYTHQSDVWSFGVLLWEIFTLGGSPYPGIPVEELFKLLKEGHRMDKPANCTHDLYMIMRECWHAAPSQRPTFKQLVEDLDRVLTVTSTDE
Chain of recombinant human FGFR3 (amino acids R397-T806) (P22607 397-806): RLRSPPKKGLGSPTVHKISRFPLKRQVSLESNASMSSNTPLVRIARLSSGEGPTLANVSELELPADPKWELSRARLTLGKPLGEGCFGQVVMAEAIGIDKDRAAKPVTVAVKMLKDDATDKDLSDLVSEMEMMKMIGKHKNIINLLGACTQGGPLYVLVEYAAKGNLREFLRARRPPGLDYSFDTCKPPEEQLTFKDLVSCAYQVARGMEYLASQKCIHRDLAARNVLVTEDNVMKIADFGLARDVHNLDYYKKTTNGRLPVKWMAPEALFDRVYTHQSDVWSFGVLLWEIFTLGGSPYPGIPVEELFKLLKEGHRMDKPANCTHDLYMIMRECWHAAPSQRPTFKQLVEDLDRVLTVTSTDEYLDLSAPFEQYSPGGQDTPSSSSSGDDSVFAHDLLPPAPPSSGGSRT
Chain of dephosphorylated FGFR2 (P21802 22-821): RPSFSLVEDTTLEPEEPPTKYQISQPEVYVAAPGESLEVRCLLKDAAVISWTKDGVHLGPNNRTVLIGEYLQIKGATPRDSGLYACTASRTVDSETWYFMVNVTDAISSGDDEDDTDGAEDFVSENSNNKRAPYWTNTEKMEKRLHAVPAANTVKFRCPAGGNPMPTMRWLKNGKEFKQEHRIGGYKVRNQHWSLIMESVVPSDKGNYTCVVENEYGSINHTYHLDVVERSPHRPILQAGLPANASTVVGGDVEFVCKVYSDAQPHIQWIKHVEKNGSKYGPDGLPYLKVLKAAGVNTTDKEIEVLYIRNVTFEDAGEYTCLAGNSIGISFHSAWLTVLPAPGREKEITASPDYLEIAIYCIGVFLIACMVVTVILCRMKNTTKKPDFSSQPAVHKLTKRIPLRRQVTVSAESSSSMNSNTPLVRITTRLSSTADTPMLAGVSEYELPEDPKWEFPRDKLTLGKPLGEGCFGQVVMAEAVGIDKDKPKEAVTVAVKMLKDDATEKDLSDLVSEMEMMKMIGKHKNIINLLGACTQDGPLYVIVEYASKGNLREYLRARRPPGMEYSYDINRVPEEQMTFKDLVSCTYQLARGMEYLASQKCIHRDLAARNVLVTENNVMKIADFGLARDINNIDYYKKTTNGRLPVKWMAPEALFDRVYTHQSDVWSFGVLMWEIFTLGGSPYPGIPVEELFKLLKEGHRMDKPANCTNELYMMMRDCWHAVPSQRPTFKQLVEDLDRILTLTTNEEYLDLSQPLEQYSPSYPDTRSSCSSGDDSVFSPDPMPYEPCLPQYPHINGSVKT
Chain of FGFR1 (SEQ ID NO: 1, amino acids 458-765) (P11362 458-765): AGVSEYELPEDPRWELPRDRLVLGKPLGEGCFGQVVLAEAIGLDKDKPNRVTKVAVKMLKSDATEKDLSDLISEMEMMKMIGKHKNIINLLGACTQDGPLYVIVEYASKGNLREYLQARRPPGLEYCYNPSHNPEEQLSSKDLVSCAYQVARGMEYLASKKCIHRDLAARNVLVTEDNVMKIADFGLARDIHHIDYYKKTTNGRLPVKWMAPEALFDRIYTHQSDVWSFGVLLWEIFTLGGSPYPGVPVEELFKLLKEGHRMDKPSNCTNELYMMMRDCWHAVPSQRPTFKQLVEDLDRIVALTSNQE

FGFR3 Enz kobs [1]: 0.1008 min⁻¹
FGFR1 Enz kobs [2]: 0.00588 min⁻¹
IC50 [3]: 77 nM
IC50 [4]: 8 nM
IC50 [5]: 8 nM
SMILES: COc1cc(-c2cnn(C3CCN(C(=O)C4(OC)CN(C(=O)/C=C/CN(C)C)C4)CC3)c2C)cn2ncc(C#N)c12 [Example 158, (E)-6-(1-(1-(1-(4-(dimethylamino)but-2-enoyl)-3-methoxyazetidine-3-carbonyl)piperidin-4-yl)-5-methyl-1H-pyrazol-4-yl)-4-methoxypyrazolo [1,5-a]pyridine-3-carbonitrile]
